The values below come from PubChem BioAssay (NCI).

Among the test systems are CAKI-1 renal; CCRF-CEM leukemia; DU-145 prostate; HCT-15 colon; HOP-92 NSCLC; IGROV1 ovarian; MDA-MB-435; MOLT-4 leukemia; NCI-H522 lung; OVCAR-4 ovarian; OVCAR-8 ovarian; SF-295 CNS; SK-MEL-2 melanoma; SK-MEL-5 melanoma; SNB-19 CNS; SR leukemia; T-47D breast; UO-31 renal; SK-OV-3 ovarian.
What all share (assay): NCI-60 cell line screen, 48 h

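Five concentrations, 48 hours, 96-well plates. TGI: concentration producing complete growth inhibition.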

Turning to `Cc1nc2ccc(F)cc2c2c1CCO2`, the TGI was 96 µM in the experiment with CAKI-1 renal; greater than 100 µM with CCRF-CEM leukemia; greater than 100 µM with DU-145 prostate; greater than 100 µM in the experiment with HCT-15 colon; greater than 100 µM in the experiment on HOP-92 NSCLC; greater than 100 µM in the experiment with IGROV1 ovarian. For the same compound, the TGI with MDA-MB-435, in the experiment with MOLT-4 leukemia, in the experiment on NCI-H522 lung, in the experiment on OVCAR-4 ovarian, with OVCAR-8 ovarian and in the experiment on SF-295 CNS was greater than 100 µM in each case. Further, the TGI in the experiment on SK-MEL-2 melanoma, with SK-MEL-5 melanoma, in the experiment on SNB-19 CNS, in the experiment with SR leukemia, in the experiment with T-47D breast and with UO-31 renal was greater than 100 µM each time.

Regarding `C=C[C@H]1CC[C@H]2[C@@H]3CC=C4C[C@@H](OC5OCC(O)C(O)C5O)CC[C@]4(C)[C@H]3CC[C@]12C` (stereo partly specified), the TGI is 23.8 µM in the experiment on CAKI-1 renal; greater than 100 µM in the experiment on CCRF-CEM leukemia; greater than 100 µM in the experiment on DU-145 prostate; greater than 100 µM in the experiment with HCT-15 colon; 16.8 µM in the experiment on HOP-92 NSCLC; 45.2 µM in the experiment with IGROV1 ovarian. For the same compound, the TGI is 47.8 µM in the experiment on MDA-MB-435; greater than 100 µM in the experiment on MOLT-4 leukemia; 25.9 µM in the experiment on NCI-H522 lung; 33.5 µM in the experiment with OVCAR-8 ovarian; 29.7 µM with SF-295 CNS; 34.5 µM in the experiment on SK-MEL-2 melanoma. Moreover, the TGI in the experiment on SK-MEL-5 melanoma was greater than 100 µM; with SK-OV-3 ovarian, 28.5 µM; with SNB-19 CNS, 65.9 µM; in the experiment with SR leukemia it was 33.7 µM; in the experiment with T-47D breast, 55.3 µM; with UO-31 renal, 30 µM.

With `COc1ccc(N=Nc2ccc3oc(=O)c(C(=O)Nc4ccccc4)cc3c2)cc1`, the TGI with CAKI-1 renal, in the experiment on DU-145 prostate, in the experiment on HCT-15 colon, in the experiment with HOP-92 NSCLC, in the experiment with IGROV1 ovarian and with MDA-MB-435 was greater than 10 µM throughout. In addition, the TGI with MOLT-4 leukemia, with NCI-H522 lung, in the experiment on OVCAR-4 ovarian, in the experiment on OVCAR-8 ovarian, in the experiment with SF-295 CNS and in the experiment with SK-MEL-2 melanoma was greater than 10 µM in each case. Besides, the TGI in the experiment with SK-MEL-5 melanoma, in the experiment on SK-OV-3 ovarian, in the experiment on SNB-19 CNS, with SR leukemia, with T-47D breast and with UO-31 renal was greater than 10 µM throughout.

On to `O=C(c1ccco1)n1c2ccc(Br)cc2c2nc3ccccc3nc21`, for which the TGI in the experiment with CAKI-1 renal, in the experiment on CCRF-CEM leukemia, with DU-145 prostate, with HCT-15 colon, with HOP-92 NSCLC and in the experiment with IGROV1 ovarian was greater than 100 µM throughout. Also, the TGI in the experiment on MDA-MB-435 was greater than 100 µM; with MOLT-4 leukemia it was greater than 100 µM; in the experiment with NCI-H522 lung, 41.5 µM; in the experiment on OVCAR-4 ovarian, greater than 100 µM; with OVCAR-8 ovarian, greater than 100 µM; in the experiment with SF-295 CNS it was greater than 100 µM. The TGI in the experiment on SK-MEL-2 melanoma, in the experiment on SK-MEL-5 melanoma, in the experiment on SNB-19 CNS, in the experiment with SR leukemia, with T-47D breast and with UO-31 renal was greater than 100 µM in each case.

`CC1(C)C2CCC(N)(C2)C1N` (stereo unspecified): the TGI in the experiment with CAKI-1 renal, in the experiment on CCRF-CEM leukemia, with DU-145 prostate, in the experiment on HCT-15 colon, with HOP-92 NSCLC and in the experiment on IGROV1 ovarian was greater than 100 µM in each case. The TGI in the experiment with MDA-MB-435, in the experiment with MOLT-4 leukemia, in the experiment on OVCAR-4 ovarian, in the experiment with OVCAR-8 ovarian, with SF-295 CNS and in the experiment on SK-MEL-2 melanoma was greater than 100 µM in each case. The TGI in the experiment on SK-MEL-5 melanoma, with SK-OV-3 ovarian, with SNB-19 CNS, in the experiment on SR leukemia, in the experiment on T-47D breast and in the experiment on UO-31 renal was greater than 100 µM each time.

With `COc1ccc(-c2cc(-c3ccc(Nc4ccnc5cc(Cl)ccc45)cc3)nc(N)c2C#N)cc1`, the TGI with CAKI-1 renal, in the experiment with DU-145 prostate, in the experiment with HCT-15 colon, in the experiment on HOP-92 NSCLC, in the experiment on IGROV1 ovarian and in the experiment with MDA-MB-435 was greater than 100 µM throughout. Also, the TGI in the experiment on MOLT-4 leukemia, in the experiment with NCI-H522 lung, in the experiment with OVCAR-4 ovarian, with OVCAR-8 ovarian, with SF-295 CNS and in the experiment with SK-MEL-2 melanoma was greater than 100 µM each time. Besides, the TGI is greater than 100 µM in the experiment on SK-OV-3 ovarian; greater than 100 µM with SNB-19 CNS; greater than 100 µM in the experiment with SR leukemia; greater than 100 µM with T-47D breast; 70.1 µM in the experiment with UO-31 renal.

On to `O=C1CCCCC1=C(I)I`, for which the TGI turned out to be 73.3 µM with CCRF-CEM leukemia; 34.1 µM in the experiment on DU-145 prostate; 29 µM in the experiment on HOP-92 NSCLC; 30.4 µM in the experiment on IGROV1 ovarian; 46.8 µM with MDA-MB-435; 58.3 µM with MOLT-4 leukemia. The TGI in the experiment with OVCAR-4 ovarian is 24.5 µM; with OVCAR-8 ovarian, greater than 100 µM; in the experiment on SF-295 CNS it was 65.8 µM; in the experiment with SK-MEL-2 melanoma it was 31.8 µM; in the experiment with SK-MEL-5 melanoma it was 33 µM; with SK-OV-3 ovarian it was 56.8 µM. The TGI was 24.9 µM in the experiment with SNB-19 CNS, greater than 100 µM in the experiment with SR leukemia, 28.7 µM in the experiment with T-47D breast and 30.5 µM with UO-31 renal.

As to `CC(O)(/C=C/c1ccccc1)P(=O)(O)c1ccccc1` (stereo unspecified), the TGI in the experiment with CAKI-1 renal, in the experiment with DU-145 prostate, in the experiment on HCT-15 colon, in the experiment on HOP-92 NSCLC, in the experiment with IGROV1 ovarian and in the experiment with MDA-MB-435 was greater than 100 µM throughout. Moreover, the TGI in the experiment with NCI-H522 lung, in the experiment on OVCAR-4 ovarian, in the experiment with OVCAR-8 ovarian, with SF-295 CNS, with SK-MEL-2 melanoma and in the experiment on SK-MEL-5 melanoma was greater than 100 µM throughout. The TGI in the experiment with SK-OV-3 ovarian, in the experiment on SNB-19 CNS, in the experiment on SR leukemia and in the experiment on T-47D breast was greater than 100 µM in each case.

For `C=C1CCC2CC1[C@@H](C(=O)c1c[nH]c3ccccc13)NC2(C)C` (stereo partly specified), the TGI in the experiment with CAKI-1 renal was greater than 37.5 µM; with CCRF-CEM leukemia it was greater than 37.5 µM; in the experiment with DU-145 prostate, greater than 37.5 µM; in the experiment with HCT-15 colon it was greater than 37.5 µM; in the experiment on HOP-92 NSCLC, 31 µM; in the experiment with IGROV1 ovarian it was greater than 37.5 µM. In addition, the TGI with MDA-MB-435, in the experiment with MOLT-4 leukemia, in the experiment with NCI-H522 lung, in the experiment with OVCAR-4 ovarian, in the experiment on OVCAR-8 ovarian and with SF-295 CNS was greater than 37.5 µM throughout. The TGI in the experiment on SK-MEL-2 melanoma, in the experiment on SK-MEL-5 melanoma, in the experiment with SR leukemia, with T-47D breast and with UO-31 renal was greater than 37.5 µM in each case.

Consider `Cc1cc(C)nc(NC(=S)Nc2ccccc2Cl)c1`, for which the TGI with CAKI-1 renal, in the experiment on CCRF-CEM leukemia, in the experiment with DU-145 prostate, with HCT-15 colon, in the experiment on IGROV1 ovarian and in the experiment with MDA-MB-435 was greater than 100 µM each time. For the same compound, the TGI in the experiment with MOLT-4 leukemia, with NCI-H522 lung, with OVCAR-4 ovarian, in the experiment on OVCAR-8 ovarian, in the experiment on SF-295 CNS and with SK-MEL-2 melanoma was greater than 100 µM in each case. The TGI in the experiment on SK-MEL-5 melanoma, with SK-OV-3 ovarian, in the experiment on SNB-19 CNS, in the experiment on SR leukemia, with T-47D breast and in the experiment with UO-31 renal was greater than 100 µM throughout.

`COc1ccc2oc(=O)cc(C)c2c1`: the TGI with CAKI-1 renal, with CCRF-CEM leukemia, with DU-145 prostate, with HOP-92 NSCLC, with IGROV1 ovarian and with MDA-MB-435 was greater than 100 µM in each case. The TGI in the experiment with MOLT-4 leukemia, in the experiment on NCI-H522 lung, in the experiment with OVCAR-4 ovarian, with OVCAR-8 ovarian, in the experiment on SF-295 CNS and in the experiment with SK-MEL-2 melanoma was greater than 100 µM each time. For the same compound, the TGI in the experiment on SK-MEL-5 melanoma, in the experiment on SNB-19 CNS, in the experiment with SR leukemia, with T-47D breast and with UO-31 renal was greater than 100 µM each time.

Take `CCOC(=O)c1cc(C2CCN(CC(C)CC)C2=S)c(-c2cc(C)no2)[nH]1` (stereo unspecified): the TGI in the experiment on CAKI-1 renal, in the experiment with CCRF-CEM leukemia, with DU-145 prostate, with HCT-15 colon, in the experiment on HOP-92 NSCLC and in the experiment with IGROV1 ovarian was greater than 100 µM each time. Moreover, the TGI with MDA-MB-435, in the experiment on MOLT-4 leukemia, in the experiment with OVCAR-4 ovarian, in the experiment with OVCAR-8 ovarian, in the experiment with SF-295 CNS and with SK-MEL-2 melanoma was greater than 100 µM throughout. The TGI in the experiment with SK-MEL-5 melanoma is greater than 100 µM; with SK-OV-3 ovarian it was greater than 100 µM; with SNB-19 CNS it was greater than 100 µM; with SR leukemia it was greater than 100 µM; with T-47D breast it was greater than 100 µM; in the experiment on UO-31 renal, 82.4 µM.

In the case of `COc1cccc(Nc2nc(-c3cccs3)nc3ccc(Br)cc23)c1`, the TGI with CAKI-1 renal, in the experiment with CCRF-CEM leukemia, in the experiment with DU-145 prostate, with HCT-15 colon, with HOP-92 NSCLC and in the experiment on IGROV1 ovarian was greater than 100 µM in each case. Also, the TGI in the experiment with MDA-MB-435, with NCI-H522 lung, with OVCAR-8 ovarian, with SF-295 CNS, in the experiment with SK-MEL-2 melanoma and in the experiment with SK-MEL-5 melanoma was greater than 100 µM each time. In addition, the TGI in the experiment with SK-OV-3 ovarian was greater than 100 µM; in the experiment with SNB-19 CNS, 78.7 µM; in the experiment with SR leukemia, greater than 100 µM; in the experiment on T-47D breast it was greater than 100 µM; in the experiment on UO-31 renal, greater than 100 µM.
